This is an account of results in patent US10101319B2, “Methods of detecting plasmodium infection” (Commonwealth Scientific and Industrial Research Organisation, priority 2013, dated 2018).

The test system of one assay is P. falciparum. As to conditions: 13 evaluable volunteers; cited from earlier work.
The next assay has as its system Plasmodium falciparum. Put plainly: GC-MS analysis of exhaled breath volatiles and PCR parasitaemia, Cohort 1, induced blood stage malaria, treated with OZ439. In kind it is in vivo, human. Particulars: Cohort 1 compared with Cohort 2 (slower acting bisquinoline 4-aminoquinoline). The protocol: This research was a controlled study using a blood stage Plasmodium falciparum (BSPC) inoculum challenge to characterize the efficacy of two anti-malaria drugs against early Plasmodium falciparum blood stage infection. Investigation of breath volatiles was an “add-on” to the anti-malarial efficacy studies. The study was conducted in two cohorts (n=8 for Cohort 1 and n=7 for Cohort 2) using different anti-malaria drugs. The anti-malaria drug investigated in Cohort 1 was OZ439 and the drug used in Cohort 2 was Piperaquine. OZ439, as an artemisin derivative, is rapidly absorbed, acts rapidly and is short-lived in the body. Piperaquine is absorbed slowly and has a long half-life in the body. […]
Each participant in the cohort was inoculated on Day 0 with ˜1,800 viable Plasmodium falciparum-infected human erythrocytes administered intravenously. On an outpatient basis, participants were monitored daily (AM) or morning (AM) and evening (PM), from day 3 until PCR positive for presence of malaria parasites, for adverse events and the unexpected early onset of symptoms, signs or parasitological evidence of malaria.
On the day designated for commencement of treatment, as determined by qPCR results (usually Day7/8 AM), participants were admitted to the study unit and confined for safety monitoring and anti-malaria drug administration with parasite load and drug levels being monitored. […]

With atovaquone-proguanil, the “mean parasite reduction ratio” value in the assay with P. falciparum was 17.

For the molecule `c1cc([C@H]2CC[C@]3(CC2)OO[C@]2(O3)C3CC4CC(C3)CC2C4)ccc1OCCN1CCOCC1` [OZ439], in the assay with Plasmodium falciparum, the “Decline in parasitaemia and thioether levels after drug” value is “faster decline in parasitaemia and thioether levels”. As to artemether-lumefantrine, the “mean parasite reduction ratio” value in the assay on P. falciparum was 759.
